In the supplement of paper PMC10627819:

Experiments:
[1] = test system: S. pneumoniae D39V; assay: fitness (endpoint OD595 vs no drug) (fraction); higher = more growth
Summary of the method: (§1)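 Fitness is computed from the optical density at which cultures reach stationary phase, divided by the robust mean of no-drug control wells. Any value above 1 is set to 1. Cultures started at OD595 0.01 in 384-well plates with TSB, LB Lennox or CY at 37 °C, and OD595 was read every 30 min for 14 h against a first-reading background.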

[2] = test system: S. aureus Newman; assay: as above
Summary of the method: as §1

[3] = test system: S. aureus DSM 20231; assay: Bliss interaction score (quartile over a dose matrix) (fitness difference); higher = more antagonism (negative = synergy)
Summary of the method: (§2)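 Quartiles of the Bliss score were taken over technical, biological and donor/recipient replicates. That score is observed fitness minus the product of the single-drug fitness values, which were inferred from combination data. Fitness itself is OD595 at entry into stationary phase divided by the plate's robust no-drug mean, with a cap at 1.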

[4] = test system: S. pneumoniae D39V; assay: as above
Summary of the method: as §2

[5] = test system: B. subtilis 168; assay: as above
Summary of the method: as §2

[6] = test system: S. aureus Newman; assay: as above
Summary of the method: as §2

[7] = test system: B. subtilis 168; assay: fitness (endpoint OD595 vs no drug) (fraction); higher = more growth; conditions: main component drawn
Summary of the method: as §1
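Wherever Bliss interaction score (quartile over a dose matrix) is given: first quartile when negative (synergy) and third quartile when positive (antagonism).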

CN(C)c1cc(NC(=O)CNC(C)(C)C)c(O)c2c1C[C@H]1C[C@H]3[C@H](N(C)C)C(O)=C(C(N)=O)C(=O)[C@@]3(O)C(O)=C1C2=O [Tigecycline] + CN[C@H](CC(C)C)C(=O)N[C@H]1C(=O)N[C@@H](CC(N)=O)C(=O)N[C@H]2C(=O)N[C@H]3C(=O)N[C@H](C(=O)N[C@H](C(=O)O)c4cc(O)cc(O)c4-c4cc3ccc4O)[C@H](O)c3ccc(c(Cl)c3)Oc3cc2cc(c3O[C@@H]2O[C@H](CO)[C@@H](O)[C@H](O)[C@H]2O[C@H]2C[C@](C)(N)[C@H](O)[C@H](C)O2)Oc2ccc(cc2Cl)[C@H]1O [Vancomycin]
Conditions | fitness
[1], first compound 0.65 µg/mL, partner 0.03125 µg/mL | 0.967
[1], first compound 0.65 µg/mL, partner 0.0625 µg/mL | 0.939
[1], first compound 0.65 µg/mL, partner 0.125 µg/mL | 0.871
[1], first compound 0.65 µg/mL, partner 0.5 µg/mL | 0.0606
[1], first compound 1.3 µg/mL, partner 0.03125 µg/mL | 0.989
[1], first compound 1.3 µg/mL, partner 0.0625 µg/mL | 0.937
[1], first compound 1.3 µg/mL, partner 0.125 µg/mL | 0.882
[1], first compound 1.3 µg/mL, partner 0.5 µg/mL | 0.0528
[1], first compound 2.6 µg/mL, partner 0.03125 µg/mL | 0.961
[1], first compound 2.6 µg/mL, partner 0.0625 µg/mL | 0.962
[1], first compound 2.6 µg/mL, partner 0.125 µg/mL | 0.918
[1], first compound 2.6 µg/mL, partner 0.25 µg/mL | 0.543
[1], first compound 2.6 µg/mL, partner 0.5 µg/mL | 0.0988
[2], first compound 0.039 µg/mL, partner 0.1875 µg/mL | 0.974
[2], first compound 0.039 µg/mL, partner 0.375 µg/mL | 0.998
[2], first compound 0.039 µg/mL, partner 0.75 µg/mL | ≥ 1
[2], first compound 0.078 µg/mL, partner 0.1875 µg/mL | ≥ 1
[2], first compound 0.078 µg/mL, partner 0.375 µg/mL | 0.99
[2], first compound 0.078 µg/mL, partner 0.75 µg/mL | 0.987
[2], first compound 0.156 µg/mL, partner 0.1875 µg/mL | 0.992
[2], first compound 0.156 µg/mL, partner 0.375 µg/mL | ≥ 1
[2], first compound 0.156 µg/mL, partner 0.75 µg/mL | 0.987

Conditions | Bliss interaction score
[3] | 0.0923
[4] | 0.0783
[5] | 0.0787
[6] | 0.0428

CO/N=C(\C(=O)N[C@@H]1C(=O)N2C(C(=O)O)=C(COC(N)=O)CS[C@H]12)c1ccco1 [Cefuroxime] + CCCCCCCCCC(=O)N[C@@H]1[C@H]([C@@H]([C@H](O[C@H]1OC2=C3C=C4C=C2OC5=C(C=C(C=C5)[C@H]([C@H]6C(=O)N[C@@H](C7=C(C(=CC(=C7)O)OC8[C@H]([C@H]([C@@H]([C@H](O8)CO)O)O)O)C9=C(C=CC(=C9)[C@H](C(=O)N6)NC(=O)[C@@H]4NC(=O)[C@@H]1C2=CC(=CC(=C2)OC2=C(C=CC(=C2)[C@H](C(=O)N[C@H](CC2=CC(=C(O3)C=C2)Cl)C(=O)N1)N)O)O)O)C(=O)O)O[C@H]1[C@@H]([C@H]([C@@H]([C@H](O1)CO)O)O)NC(=O)C)Cl)CO)O)O [Teicoplanin]
fitness, [2], one replicate, main component drawn
Conditions | first compound 0.04875 µg/mL | first compound 0.0975 µg/mL | first compound 0.195 µg/mL
partner 0.1562 µg/mL | ≥ 1 | 0.968 | 0.888
partner 0.3125 µg/mL | 0.991 | 0.968 | 0.953
partner 0.625 µg/mL | ≥ 1 | 0.977 | 0.973

main component drawn
Conditions | Bliss interaction score
[3] | 0.15
[4] | -0.0352
[5] | -0.0964
[6] | 0.0304

C[C@H]1c2cccc(O)c2C(=O)C2=C(O)[C@]3(O)C(=O)C(C(N)=O)=C(O)[C@@H](N(C)C)[C@@H]3[C@@H](O)[C@@H]21 [Doxycycline] + CCC(C)C1C(=O)NC(=C)C(=O)NC(C(=O)NC(CSCC(C(=O)N1)NC(=O)/C(=C/C)/NC(=O)C(C(C)CC)N)C(=O)NC2C(SCC(NC(=O)CNC(=O)C3CCCN3C2=O)C(=O)NC(CCCCN)C(=O)NC4C(SCC(NC(=O)CNC(=O)C(NC(=O)C(NC(=O)C(NC(=O)CNC4=O)C)CC(C)C)CCSC)C(=O)NC(CC(=O)N)C(=O)NC(CCSC)C(=O)NC(CCCCN)C(=O)NC5C(SCC6C(=O)NC(C(=O)NC(CSC(C(C(=O)N6)NC(=O)C(NC5=O)C)C)C(=O)NC(CO)C(=O)NC(C(C)CC)C(=O)NC(CC7=CN=CN7)C(=O)NC(C(C)C)C(=O)NC(=C)C(=O)NC(CCCCN)C(=O)O)CC8=CN=CN8)C)C)C)CC(C)C [Nisin]
fitness, [1], one replicate, main component drawn
Conditions | first compound 0.003875 µg/mL | first compound 0.00775 µg/mL | first compound 0.031 µg/mL | first compound 0.062 µg/mL
partner 1.6 µg/mL | 0.0092 | 0.0172 | 0.222 | 0.0897
partner 3.2 µg/mL | 0 | 0 | 0.0345 | 0.0057
partner 6.4 µg/mL | 0.0176 | 0.0097 | 0 | 0.0088

Conditions | fitness
[1], first compound 0.0155 µg/mL, partner 0.4275 µg/mL, main component drawn | 0.935
[1], first compound 0.0155 µg/mL, partner 0.855 µg/mL, main component drawn | 0.803
[1], first compound 0.0155 µg/mL, partner 1.6 µg/mL, main component drawn | 0.192
[1], first compound 0.0155 µg/mL, partner 1.71 µg/mL, main component drawn | 0.0645
[1], first compound 0.0155 µg/mL, partner 3.2 µg/mL, main component drawn | 0.017
[1], first compound 0.0155 µg/mL, partner 6.4 µg/mL, main component drawn | 0.0088
[1], first compound 0.031 µg/mL, partner 0.4275 µg/mL, main component drawn | 0.89
[1], first compound 0.031 µg/mL, partner 0.855 µg/mL, main component drawn | 0.596
[1], first compound 0.031 µg/mL, partner 1.71 µg/mL, main component drawn | 0.0413
[1], first compound 0.062 µg/mL, partner 0.4275 µg/mL, main component drawn | 0.846
[1], first compound 0.062 µg/mL, partner 1.71 µg/mL, main component drawn | 0.0711
[7], first compound 0.02 µg/mL, partner 1.25 µg/mL, one replicate | 0.915
[7], first compound 0.02 µg/mL, partner 1.6 µg/mL, one replicate | 0.287
[7], first compound 0.02 µg/mL, partner 2.5 µg/mL, one replicate | 0.481
[7], first compound 0.02 µg/mL, partner 3.2 µg/mL, one replicate | 0.0387
[7], first compound 0.02 µg/mL, partner 4 µg/mL, one replicate | 0.0411
[7], first compound 0.02 µg/mL, partner 5 µg/mL, one replicate | 0.0601
[7], first compound 0.02 µg/mL, partner 6.4 µg/mL, one replicate | 0.0419
[7], first compound 0.02 µg/mL, partner 8 µg/mL, one replicate | 0.0354
[7], first compound 0.02 µg/mL, partner 16 µg/mL, one replicate | 0.0177
[7], first compound 0.04 µg/mL, partner 1.25 µg/mL, one replicate | 0.935
[7], first compound 0.04 µg/mL, partner 1.6 µg/mL, one replicate | 0.358
[7], first compound 0.04 µg/mL, partner 2.5 µg/mL, one replicate | 0.464
[7], first compound 0.04 µg/mL, partner 3.2 µg/mL, one replicate | 0.0224
[7], first compound 0.04 µg/mL, partner 4 µg/mL, one replicate | 0.137
[7], first compound 0.04 µg/mL, partner 5 µg/mL, one replicate | 0.0251
[7], first compound 0.04 µg/mL, partner 6.4 µg/mL, one replicate | 0.035
[7], first compound 0.04 µg/mL, partner 8 µg/mL, one replicate | 0.0271
[7], first compound 0.04 µg/mL, partner 16 µg/mL, one replicate | 0.024
[7], first compound 0.08 µg/mL, partner 1.25 µg/mL, one replicate | 0.594
[7], first compound 0.08 µg/mL, partner 1.6 µg/mL, one replicate | 0.0173
[7], first compound 0.08 µg/mL, partner 2.5 µg/mL, one replicate | 0.165
[7], first compound 0.08 µg/mL, partner 3.2 µg/mL, one replicate | 0.0251
[7], first compound 0.08 µg/mL, partner 4 µg/mL, one replicate | 0.0169
[7], first compound 0.08 µg/mL, partner 5 µg/mL, one replicate | 0.0318
[7], first compound 0.08 µg/mL, partner 6.4 µg/mL, one replicate | 0.0245
[7], first compound 0.08 µg/mL, partner 8 µg/mL, one replicate | 0.0228
[7], first compound 0.08 µg/mL, partner 16 µg/mL, one replicate | 0.0199

fitness, [7]
Conditions | first compound 0.02 µg/mL | first compound 0.04 µg/mL | first compound 0.08 µg/mL
partner 0.5 µg/mL | 0.836 | 0.755 | 0.61
partner 1 µg/mL | 0.809 | 0.741 | 0.541
partner 2 µg/mL | 0.476 | 0.403 | 0.0887

main component drawn
Conditions | Bliss interaction score
[3] | -0.0392
[4] | -0.161
[5] | 0.0503
[6] | 0.0561
